# According to paper PMC12005229, “Final results from the phase Ia/Ib study of the novel bromodomain and extra-terminal domain inhibitor, BI 894999, in patients with advanced solid tumors or diffuse large B-cell lymphoma” (ESMO Open, 2025):
# Tested on: patients with DLBCL
# Assay: phase Ia DLBCL extension: tumor response (RECIL 2017)
# Assay type: in vivo, human
# Protocol: PFS was measured for the period from the start of treatment to the occurrence of progressive disease or death. Tumor response was measured using RECIST 1.1[28] for patients with solid tumors and RECIL 2017[29] for those with DLBCL. OS was assessed in patients with NUT carcinoma; the OS status was to continue until 12 months after the end of the study.
# Supplementary Table 1. […]
# • Objective response (OR), defined as complete response (CR) or partial response (PR) with tumor assessment during treatment period for each schedule according to Response Evaluation Criteria in Solid Tumors (RECIST) version 1.1. For DLBCL patients, a minor response according to Response Evaluation Criteria in Lymphoma (RECIL) 2017 was not part of an OR […]
# • Progression-free survival (PFS), defined from date of start of BI 894999 to the date of objective disease progression or death, whichever was earlier, with tumor assessment every 2 cycles (every 6 weeks for Schedule B if no delays or as close as possible to the end of the second of the 2 cycles of treatment if there was a delay) during the treatment period […]
# AUC0–24, area under the plasma concentration–time curve over the 24-hour dosing interval; AUCτ, ss , area under the plasma concentration–time curve over the dosing interval τ at steady state; AE, adverse event; Cmax, maximal exposure; Cma x , s s , maximal exposure at steady state; DLBCL, diffuse large B- cell lymphoma; DLT, dose-limiting toxicity; mCRPC, metastatic castration-resistant prostate cancer; NUT, nuclear protein in […]
structure (smiles),measurement,setting,value
CNc1nc(-c2nc3ccc(N4CCN(C)CC4)cc3n2Cc2ccccc2)cn2c(C)nnc12 [BI 894999],patients not assessable,phase Ia DLBCL n = 18,27.8%
same,patients with partial response (BOR),phase Ia DLBCL n = 18,5.6%
same,patients with progressive disease,phase Ia DLBCL n = 18,50.0%
same,patients with stable disease,phase Ia DLBCL n = 18,16.7%
same,duration of response (DOR) of confirmed PR,"phase Ia DLBCL, one patient",49 days
same,Best overall response: complete response,"phase Ia DLBCL, schedule B",0 (0.0) n (%)
same,Best overall response: not evaluable,"phase Ia DLBCL, schedule B",5 (35.7) n (%)
same,Best overall response: partial response,"phase Ia DLBCL, schedule B",1 (7.1) n (%)
same,Best overall response: progressive disease,"phase Ia DLBCL, schedule B",6 (42.9) n (%)
same,Best overall response: stable disease,"phase Ia DLBCL, schedule B",2 (14.3) n (%)
same,Disease control,"phase Ia DLBCL, schedule B",3 (21.4) n (%)
same,Objective response,"phase Ia DLBCL, schedule B",1 (7.1) n (%)
same,Best overall response: complete response,"phase Ia DLBCL, schedule C",0 (0.0) n (%)
same,Best overall response: not evaluable,"phase Ia DLBCL, schedule C",0 (0.0) n (%)
same,Best overall response: partial response,"phase Ia DLBCL, schedule C",0 (0.0) n (%)
same,Best overall response: progressive disease,"phase Ia DLBCL, schedule C",3 (75.0) n (%)
same,Best overall response: stable disease,"phase Ia DLBCL, schedule C",1 (25.0) n (%)
same,Disease control,"phase Ia DLBCL, schedule C",1 (25.0) n (%)
same,Best overall response: complete response,"phase Ia DLBCL, total",0 (0.0) n (%)
same,Best overall response: not evaluable,"phase Ia DLBCL, total",5 (27.8) n (%)
same,Best overall response: partial response,"phase Ia DLBCL, total",1 (5.6) n (%)
same,Best overall response: progressive disease,"phase Ia DLBCL, total",9 (50.0) n (%)
same,Best overall response: stable disease,"phase Ia DLBCL, total",3 (16.7) n (%)
same,Disease control,"phase Ia DLBCL, total",4 (22.2) n (%)
same,Objective response,"phase Ia DLBCL, total",1 (5.6) n (%)
